Molecules are shown by their SMILES.

In one experiment the target is T1, hCB2R (Homo sapiens, UniProt P34972).
T1 construct: unnamed tag of the plasmid; expressed in transfected cells
Put plainly: cAMP assay on hCB2R clone 3D8.3 (transfected CHO-K1 cells). Format: cell-based. As to conditions: for IC50: cAMP, hCNR2 CHO-K1 3D8.3 clone, read-out: Assay 1 IC50. Here is the method:
(§1) Compounds were evaluated for their CB2R agonist potency in the following assays:
Assay 1—cAMP Assay on hCB2R Clone 3D8.3:
Chinese hamster ovary cells (CHO)-K1 were transfected with hCB2R plasmid using Genejuice (Merck). After 48 h the cells were transferred into flasks in the presence of the antibiotic G418 and expanded (with continuous replenishment of the antibiotic). Two single-cell cloning rounds were then performed, followed by verification of the presence of the tag of the plasmid and confirming the receptor was functional in cAMP studies. For the screening of compounds: Briefly, hCNR2 CHO-K1 (3D8.3 clone) cells were plated in Optimem+1% FCS (30000 cells, 100 ul per well) in half-area 96-well plates (Corning 3885) and placed in an incubator 37° C. 5% CO2 overnight. Next day, the medium was aspirated and replaced with ‘antibody solution’ (22.5 ul) (provided concentrated, diluted 1 in 3 with ‘assay buffer’ provided). The freshly made compounds (at a ×4 final concentration) or solvent alone (1.2% DMSO) were added to the wells and incubated for 30 minutes in a 37° C. incubator 5% CO2. A mixture of: Lysis solution (38%), substrates (Emerald-II™ (10%) and Galacton-Star® (2%)) and enzyme donor-labeled cAMP (50%) was added to the wells and incubated in the dark for one hour at room temperature. 30 μl of detection reagent (enzyme acceptor, provided) was then added to the wells and incubated in the dark for 3 hours at room temperature. The luminescence was then read with a Perkin-Elmer luminometer.
(cAMP levels reflect the balance of adenylyl cyclase and phosphodiesterase activity.)

A further experiment deals with T2, hCNR2 (CB2R) (Homo sapiens, UniProt P34972).
T2 construct: host or cells: CHO-K1 (purchased recombinant cell line)
Briefly: DiscoveRx cAMP Hunter Express GPCR assay (hCNR2 CHO-K1 cells). Conditions: cAMP Hunter eXpress, hCNR2 CHO-K1 cells; read-out: Assay 2 IC50. Format: cell-based. As to the method: as §1
Assay 2—DiscoveRx cAMP Hunter Express GPCR Assay
The cAMP Hunter eXpress GPCR assay kit and cells used are from DiscoveRx Corporation (95-0040E2) using the manufacturer's protocol without the optional IBMX step. […] Briefly, hCNR2 CHO-K1 cells were plated in the provided medium (50 ul per well) in half-area 96-well plates (Corning 3885) and placed in an incubator 37° C. 5% CO2 overnight. Next day, the medium was aspirated and replaced with ‘antibody solution’ (22.5 ul) (provided concentrated, diluted 1 in 3 with ‘assay buffer’ provided). The freshly made compounds (at a ×4 final concentration) or solvent alone (1.2% DMSO) were added to the wells and incubated for 30 minutes in a 37° C. incubator 5% CO2. A mixture of lysis solution and two substrates (provided with the DiscoveRx kit) was added to the wells and incubated in the dark for one hour at room temperature. A detection reagent (provided) was then added to the wells and incubated in the dark for 3 hours at room temperature. The luminescence was then read with a Perkin-Elmer luminometer.

T1 sequence (P34972 whole entry): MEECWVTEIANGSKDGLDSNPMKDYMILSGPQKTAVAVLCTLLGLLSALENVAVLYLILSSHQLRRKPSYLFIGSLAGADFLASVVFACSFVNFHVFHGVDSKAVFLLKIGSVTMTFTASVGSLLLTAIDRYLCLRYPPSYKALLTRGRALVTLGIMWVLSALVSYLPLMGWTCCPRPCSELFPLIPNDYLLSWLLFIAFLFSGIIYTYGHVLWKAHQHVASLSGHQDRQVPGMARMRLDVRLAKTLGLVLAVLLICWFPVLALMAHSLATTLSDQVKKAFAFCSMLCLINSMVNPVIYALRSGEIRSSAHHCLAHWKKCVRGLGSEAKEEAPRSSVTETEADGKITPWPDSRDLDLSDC
T2 sequence (P34972 whole entry): as above

As to `C[C@@H]1C[C@H]1C(=O)n1c2ccccc2c2nnc(SCc3ccccc3C#N)nc21` (relative stereo) [Example 40, 2′-((5-(2″-Methylcyclopropanecarbonyl)-5H-[1,2,4]triazino[5,6-b]indol-3-ylthio)methyl)benzonitrile], at hCB2R, the IC50 amounted to 628 nM.

On to `N#Cc1ccccc1CSc1nnc2c3ccccc3n(C(=O)[C@@H]3C[C@H]3c3ccccc3)c2n1` (stereo in doubt) [Example 38, 2′-((5-(2″-Phenylcyclopropanecarbonyl)-5H-[1,2,4]triazino[5,6-b]indol-3-ylthio)methyl)benzonitrile], for which the IC50 at hCB2R turned out to be 72 nM.

With `O=[N+]([O-])c1ccccc1CSc1nnc2c(n1)[nH]c1ccccc12` [Example 1, 3-((2′-nitrobenzyl)thio)-5H-[1,2,4]triazino[5,6-b]indole], the IC50 came out at 129 nM on hCB2R and 33 nM at hCNR2 (CB2R).

In the case of `N#Cc1ccccc1CSc1nnc2c(n1)[nH]c1ccccc12` [Example 2, 3-((2′-Cyanobenzyl)thio)-5H-[1,2,4]triazino[5,6-b]indole], the results for the IC50 at hCB2R and on hCNR2 (CB2R) were 160 nM and 112 nM, respectively.

Take `N#Cc1ccccc1CSc1nnc2c3ccccc3n(Cc3ccccc3)c2n1` [Example 3, 2′-(((5-Benzyl-5H-[1,2,4]triazino[5,6-b]indol-3-yl)thio)methyl)benzonitrile]: the IC50 is 96 nM on hCB2R and 214 nM at hCNR2 (CB2R).

As to `N#Cc1ccccc1CSc1nnc2c3ccccc3n(Cc3ccc(Cl)cc3)c2n1` [Example 5, 2′(((5-(4″-Chlorobenzyl)-5H-[1,2,4]triazino[5,6-b]indol-3-yl)thio)methyl)benzonitrile], at hCB2R, the IC50 was around 600 nM.

Take `O=[N+]([O-])c1ccccc1CSc1nnc2c3ccccc3n(Cc3ccc(Cl)cc3)c2n1` [Example 6, 5-(4″-Chlorobenzyl)-3-((2′-nitrobenzyl)thio)-5H-[1,2,4]triazino[5,6-b]indole]: the figures for the IC50 on hCB2R and at hCNR2 (CB2R) were 631 nM and 109 nM, respectively.

On to `O=C(c1ccccc1)n1c2ccccc2c2nnc(SCc3ccccc3[N+](=O)[O-])nc21` [Example 7, (3-((2′-Nitrobenzyl)thio)-5H-[1,2,4]triazino[5,6-b]indol-5-yl)(phenyl)methanone], for which the IC50 at hCB2R was determined as 840 nM; at hCNR2 (CB2R) it was 75 nM.

Take `N#Cc1ccccc1CSc1nnc2c(n1)[nH]c1cccc(Br)c12` [Example 8, 2′-(((9-Bromo-5H-[1,2,4]triazino[5,6-b]indol-3-yl)thio)methyl)benzonitrile]: the figures for the IC50 at hCB2R and at hCNR2 (CB2R) were 228 nM and 39 nM, respectively.

As for `O=[N+]([O-])c1ccccc1CSc1nnc2c(n1)[nH]c1cccc(Br)c12` [Example 9, 9-Bromo-3-((2′-nitrobenzyl)thio)-5H-[1,2,4]triazino[5,6-b]indole], the IC50 on hCB2R was found to be 280 nM; at hCNR2 (CB2R), 37 nM.

Take `O=[N+]([O-])c1ccccc1CSc1nnc2c3ccccc3n(Cc3ccccc3)c2n1` [Example 14, 5-Benzyl-3-((2′-nitrobenzyl)thio)-5H-[1,2,4]triazino[5,6-b]indole]: the “Assay 1 activity at 3 μM” value at hCB2R was around 40% activity at 3 μM.

For the molecule `Cc1ccccc1CSc1nnc2c(n1)[nH]c1ccccc12` [Example 15, 3-((2′-Methylbenzyl)thio)-5H-[1,2,4]triazino[5,6-b]indole], the IC50 on hCNR2 (CB2R) came to 215 nM.

Turning to `COc1ccc(C(=O)n2c3ccccc3c3nnc(SCc4ccccc4C#N)nc32)cc1OC` [Example 17], on hCB2R, the “Assay 1 activity at 3 μM” value was around 60% activity at 3 μM.

For the molecule `CC(=O)n1c2ccccc2c2nnc(SCc3ccccc3C#N)nc21` [Example 29, 2′(((5-Acetyl-5H-[1,2,4]triazino[5,6-b]indol-3-yl)thio)methyl)benzonitrile], at hCB2R, the IC50 was above 3000 nM.

Regarding `CCn1c2ccccc2c2nnc(SCc3ccccc3C#N)nc21` [Example 30, 2′-(((5-Ethyl-5H-[1,2,4]triazino[5,6-b]indol-3-yl)thio)methyl)benzonitrile], the IC50 at hCB2R is 674 nM.

Regarding `CCCCn1c2ccccc2c2nnc(SCc3ccccc3C#N)nc21` [Example 31, 2′-(((5-Butyl-5H-[1,2,4]triazino[5,6-b]indol-3-yl)thio)methyl)benzonitrile], the IC50 at hCB2R turned out to be 106 nM.

For `N#Cc1ccccc1C[S+]([O-])c1nnc2c(n1)[nH]c1ccccc12` (stereo not drawn) [Example 32, 2′-(((5H-[1,2,4]Triazino[5,6-b]indol-3-yl)sulfinyl)methyl)benzonitrile], the IC50 on hCB2R stood at 3550 nM.

With `O=[N+]([O-])c1ccc(CSc2nnc3c(n2)[nH]c2ccccc23)cc1` [Example 33, 3-((4′-Nitrobenzyl)thio)-5H-[1,2,4]triazino[5,6-b]indole], at hCB2R, the IC50 was 617 nM.

As to `N#Cc1ccccc1CSc1nnc2c3ccccc3n(S(=O)(=O)c3ccccc3)c2n1` [Example 34, 2′-(((5-(Phenylsulfonyl)-5H-[1,2,4]triazino[5,6-b]indol-3-yl)thio)methyl)benzonitrile], the IC50 on hCB2R turned out to be 76 nM.

For `N#Cc1ccccc1CSc1nnc2c3ccccc3n(CC3CCCCC3)c2n1` [Example 36, 2′-(((5-(Cyclohexylmethyl)-5H-[1,2,4]triazino[5,6-b]indol-3-yl)thio)methyl)benzonitrile], on hCB2R, the IC50 was found to be 270 nM.

Consider `N#Cc1ccccc1CSc1nnc2c3ccccc3n(Cc3ccc(F)cc3)c2n1` [Example 37, 2′-(((5-(4″-Fluorobenzyl)-5H-[1,2,4]triazino[5,6-b]indol-3-yl)thio)methyl)benzonitrile], for which the IC50 on hCB2R came out at 45 nM.

Regarding `N#Cc1ccccc1CSc1nnc2c3ccccc3n(CC(=O)C3CC3)c2n1` [Example 39, 2′-((5-(2-Cyclopropyl-2-oxoethyl)-5H-[1,2,4]triazino[5,6-b]indol-3-ylthio)methyl)benzonitrile], the IC50 at hCB2R is 549 nM.

For the molecule `N#Cc1ccccc1CSc1nnc2c3ccccc3n(CC3CC3)c2n1` [Example 41, 2′-((5-(Cyclopropylmethyl)-5H-[1,2,4]triazino[5,6-b]indol-3-ylthio)methyl)benzonitrile], the IC50 on hCB2R was 144 nM.

For `N#Cc1ccccc1CSc1nnc2c3ccccc3n(C(=O)C3CC3)c2n1` [Example 42, 2′-(((5-(Cyclopropanecarbonyl)-5H-[1,2,4]triazino[5,6-b]indole-3-yl)thio)methyl)benzonitrile], the IC50 on hCB2R was determined as 181 nM.

`N#Cc1ccccc1CSc1nnc2c3c(Br)cccc3n(CC3CC3)c2n1` [Example 43, 2′-(((9-Bromo-5-(cyclopropylmethyl)-5H-[1,2,4]triazino[5,6-b]indol-3-yl)thio)methyl)benzonitrile]: the IC50 on hCB2R was found to be 20 nM.

In the case of `N#Cc1ccccc1CSc1nnc2c3c(Br)cccc3n(C(=O)C3CC3)c2n1` [Example 44, 2′-(((9-Bromo-5-(cyclopropanecarbonyl)-5H-[1,2,4]triazino[5,6-b]indol-3-yl)thio)methyl)benzonitrile], the IC50 at hCB2R was 16 nM.

Take `O=C(O)c1ccccc1CSc1nnc2c(n1)[nH]c1ccccc12` [Example 46, 2′-(((5H-[1,2,4]Triazino[5,6-b]indol-3-yl)thio)methyl)benzoic]: on hCB2R, the IC50 came out at 2180 nM.

Regarding `c1ccc(-c2nn[nH]n2)c(CSc2nnc3c(n2)[nH]c2ccccc23)c1` [Example 47], the IC50 at hCB2R came out at 11 nM.

For the molecule `Cc1ccccc1-c1cccc2[nH]c3nc(SCc4ccccc4C#N)nnc3c12` [Example 48, 2″-(((9-(o-Tolyl)-5H-[1,2,4]triazino[5,6-b]indol-3-yl)thio)methyl)benzonitrile], at hCB2R, the IC50 was found to be 4300 nM.

`COc1ccc(-c2cccc3[nH]c4nc(SCc5ccccc5C#N)nnc4c23)cc1` [Example 49, 2″-(((9-(4′-Methoxyphenyl)-5H-[1,2,4]triazino[5,6-b]indol-3-yl)thio)methyl)benzonitrile]: at hCB2R, the IC50 stood at 2620 nM.

With `N#Cc1ccccc1CSc1nnc2c(n1)[nH]c1cccc(-c3ccsc3)c12` [Example 50, 2″-(((9-(Thiophen-3′-yl)-5H-[1,2,4]triazino[5,6-b]indol-3-yl)thio)methyl)benzonitrile], the IC50 on hCB2R worked out at 1760 nM.

For the molecule `N#Cc1ccccc1CSc1nnc2c(n1)[nH]c1cccc(C3CC3)c12` [Example 51, 2″-(((9-Cyclopropyl-5H-[1,2,4]triazino[5,6-b]indol-3-yl)thio)methyl)benzonitrile], the IC50 on hCB2R amounted to 231 nM.

By IC50 is commonly meant the midpoint of a concentration-inhibition curve.
